Test results: patent publication US12312347B2, “Azaindole derivative and use thereof as FGFR and C-Met inhibitor” (Wuxi Life Fountain Biotech Co., Ltd, priority 2018, dated 2025)

Columns and labels:
human FGFR4 = target: T1, human FGFR4 (Homo sapiens, UniProt P22455); test: 33P isotope-labeled kinase activity test, FGFR4; type: biochemical; conditions: ATP 100 μM
T1 construct: purchased Invitrogen P3054
Experimental: (§1) The inhibitory activities of the tested compounds on human FGFR1, FGFR4, and c-Met were evaluated by the IC50 values measured using ^33P isotope-labeled kinase activity test (Reaction Biology Corp).
(§2) Buffer condition: 20 mM Hepes (pH 7.5), 10 mM MgCl2, 1 mM EGTA, 0.02% Brij35, 0.02 mg/mL BSA, 0.1 mM Na3VO4, 2 mM DTT, 1% DMSO.
(§3) Test procedure: The test compounds were dissolved in DMSO at room temperature and formulated to be 10 mM solutions for later use. The substrates were dissolved in freshly prepared buffer, and kinases to be tested were added and mixed well. The test compounds dissolved in DMSO were added to the above mixed reaction solutions by acoustic technique (Echo 550). The concentration of the compound in reaction solution was 1 μM, 0.25 μM, 0.156 μM, 3.91 nM, 0.977 nM, 0.244 nM, 0.061 nM, 0.0153 nM, 0.00381 nM or 10 μM, 2.50 μM, 0.62 μM, 0.156 μM, 39.1 nM, 9.8 nM, 2.4 nM, 0.61 nM, 0.15 nM, 0.038 nM. After incubation for 15 min, ^33P-ATP (activity 0.01 μCi/μL, corresponding concentrations are listed in Table 1) was added to start the reaction. Supplier item number, batch number, as well as the concentration information in the reaction solution of FGFR1, FGFR4, c-Met and substrates thereof are listed in Table 1. […] The kinase activity data are expressed by comparison between the kinase activity in the test compound group and the kinase activity in the blank group (containing DMSO only). IC50 values were obtained by curve fitting with Prism4 software (GraphPad).

[1] = Pharmacokinetic evaluation in mice (IV and PO); type: in vivo, male CD-1 mice; conditions: for AUC(0-t) / bioavailability / Cmax / Tmax / clearance / half-life / Vd: male, plasma; for bioavailability: PO 10 mg/kg vs IV 2 mg/kg, read-out: F (bioavailability); for Cmax: read-out: Cmax (peak concentration); for Tmax: read-out: Tmax (time to peak); for clearance: read-out: Cl (plasma clearance); for half-life: read-out: T1/2 (elimination half-life) (converted); for Vd: read-out: Vdss (steady-state apparent volume of distribution); for oral bioavailability (in words): oral administration
Experimental: Experimental Procedure: 0.4 mg/mL clear solution of the test compounds in a specific menstruum was injected intravenously into male CD-1 nude mice (overnight fasting, aged 7-9 weeks) via caudal vein at a dose of 2 mg/kg. About 30 μL of blood was collected from jugular or caudal vein at 0.0833, 0.25, 0.5, 1.0, 2.0, 4.0, 8.0 and 24 h after intravenous administration. […] About 30 μL of blood was collected from jugular or caudal vein of the male CD-1 mice at 0.0833, 0.25, 0.5, 1.0, 2.0, 4.0, 8.0 and 24 h after oral administration. The blood samples were added into anticoagulant tubes containing EDTA-K2, and then centrifuged to separate the plasma. LC-MS/MS method was used to determine the drug concentration in blood, and WinNonlin™ Version 6.3 (Pharsight, Mountain View, CA) pharmacokinetic software was used to calculate the relevant pharmacokinetic parameters by non-compartment model linear logarithmic trapezoidal method.
Note: Plasma clearance (Cl) mL/min/kg, steady-state apparent volume of distribution (Vdss) L/kg, elimination half-life (T1/2) and area under the plasma concentration curve from point 0 to the last measurable time point (AUC0-last), bioavailability F %, peak concentration (Cmax), time to peak Tmax

human FGFR1 = target: T2, human FGFR1 (Homo sapiens, UniProt P11362); test: 33P isotope-labeled kinase activity test, FGFR1; type: biochemical; conditions: ATP 5 μM
T2 construct: purchased Invitrogen PV3146
Experimental: as §1, §2
as §3, with “The concentration of the compound in reaction solution was 1 μM, 0.25 μM, 0.156 μM, 3.91 nM, 0.977 nM, 0.244 nM, 0.061 nM, 0.0153 nM, 0.00381 nM or 10 μM, 2.50 μM, 0.62 μM, 0.156 μM, 39.1 nM, 9.8 nM, 2.4 nM, 0.61 nM, 0.15 nM, 0.038 nM.” left out

[2] = test system: SNU-16 transplantation tumor model; test: In vivo pharmacodynamic evaluation, SNU-16 gastric cancer transplantation tumor model; set-up: species or system nude mice; conditions: SNU-16 transplantation model
Experimental: Method of establishing SNU-16 gastric cancer model: SNU-16 cells in logarithmic growth phase were collected, and the cells were resuspended in 50% PBS (pH 7.4, 0.01 M) and 50% Matrigel after cell counting. The cell concentration was adjusted to 4×10^7 cells/mL; the cells were placed in an ice box, and the cell suspension was aspirated with a 1-mL syringe and subcutaneously injected into nude mice via the anterior right armpit. Each animal was inoculated with 200 μL (8×10^6 cells/each) to establish the SNU-16 transplantation tumor model. The animals were observed regularly, and the tumor diameters were measured using an electronic vernier caliper. The data were inputted an Excel spreadsheet to calculate the tumor volume and monitor the tumor growth. When the tumor volume reached 100-300 mm^3, mice bearing similar tumor volume and in good health condition were selected. Randomization method was used for animal grouping; the number of animals in each group was n=7, and the average tumor volume of each group was about 145 mm^3. After the experiment started, tumor diameters were measured and tumor volume was calculated twice a week, and the weight of animals was weighed and recorded.
Tumor growth inhibition (TGI) was used to analyze the tumor growth trend and evaluated by tumor volume over time. The long axis (L) and short axis (W) of the subcutaneous tumors were measured twice a week by a caliper, and the tumor volume (TV) was calculated by the formula ((L×W^2)/2).
The experimental data were calculated and statistically processed by SPSS 19.0. Unless otherwise stated, data were expressed as mean f standard error (Mean±SE), and comparisons between two groups were analyzed by t-test. p<0.05 indicates a significant difference. The solvent 30% PEG400 (containing 70% deionized water, v/v) was used as negative control.

human c-Met = target: T3, human c-Met (Homo sapiens, UniProt P08581); test: 33P isotope-labeled kinase activity test, c-Met; type: biochemical; conditions: ATP 10 μM
T3 construct: purchased Invitrogen PV3143
Experimental: as §1, §2, §3

T2 sequence (P11362 22-822): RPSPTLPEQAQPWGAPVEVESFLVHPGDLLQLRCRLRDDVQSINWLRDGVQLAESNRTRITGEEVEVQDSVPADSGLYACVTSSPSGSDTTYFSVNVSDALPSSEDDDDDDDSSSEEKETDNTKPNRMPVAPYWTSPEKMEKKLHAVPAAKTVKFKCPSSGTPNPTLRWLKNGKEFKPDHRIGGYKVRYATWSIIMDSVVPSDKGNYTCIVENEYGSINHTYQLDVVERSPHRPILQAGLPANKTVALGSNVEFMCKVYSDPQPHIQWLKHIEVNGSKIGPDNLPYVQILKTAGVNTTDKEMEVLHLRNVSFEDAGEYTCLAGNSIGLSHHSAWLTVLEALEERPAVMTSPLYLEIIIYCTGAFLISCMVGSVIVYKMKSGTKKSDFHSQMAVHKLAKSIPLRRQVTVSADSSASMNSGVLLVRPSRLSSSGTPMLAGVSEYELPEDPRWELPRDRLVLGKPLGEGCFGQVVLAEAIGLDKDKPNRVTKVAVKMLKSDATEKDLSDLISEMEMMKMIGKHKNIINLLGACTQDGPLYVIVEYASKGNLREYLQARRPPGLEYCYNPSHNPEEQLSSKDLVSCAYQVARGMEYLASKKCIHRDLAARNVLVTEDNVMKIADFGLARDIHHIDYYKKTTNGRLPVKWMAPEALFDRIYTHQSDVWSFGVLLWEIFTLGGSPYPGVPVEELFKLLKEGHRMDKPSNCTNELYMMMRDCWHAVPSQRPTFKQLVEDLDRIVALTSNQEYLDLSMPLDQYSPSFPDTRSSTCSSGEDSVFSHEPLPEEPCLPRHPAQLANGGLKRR
T3 sequence (P08581 25-1390): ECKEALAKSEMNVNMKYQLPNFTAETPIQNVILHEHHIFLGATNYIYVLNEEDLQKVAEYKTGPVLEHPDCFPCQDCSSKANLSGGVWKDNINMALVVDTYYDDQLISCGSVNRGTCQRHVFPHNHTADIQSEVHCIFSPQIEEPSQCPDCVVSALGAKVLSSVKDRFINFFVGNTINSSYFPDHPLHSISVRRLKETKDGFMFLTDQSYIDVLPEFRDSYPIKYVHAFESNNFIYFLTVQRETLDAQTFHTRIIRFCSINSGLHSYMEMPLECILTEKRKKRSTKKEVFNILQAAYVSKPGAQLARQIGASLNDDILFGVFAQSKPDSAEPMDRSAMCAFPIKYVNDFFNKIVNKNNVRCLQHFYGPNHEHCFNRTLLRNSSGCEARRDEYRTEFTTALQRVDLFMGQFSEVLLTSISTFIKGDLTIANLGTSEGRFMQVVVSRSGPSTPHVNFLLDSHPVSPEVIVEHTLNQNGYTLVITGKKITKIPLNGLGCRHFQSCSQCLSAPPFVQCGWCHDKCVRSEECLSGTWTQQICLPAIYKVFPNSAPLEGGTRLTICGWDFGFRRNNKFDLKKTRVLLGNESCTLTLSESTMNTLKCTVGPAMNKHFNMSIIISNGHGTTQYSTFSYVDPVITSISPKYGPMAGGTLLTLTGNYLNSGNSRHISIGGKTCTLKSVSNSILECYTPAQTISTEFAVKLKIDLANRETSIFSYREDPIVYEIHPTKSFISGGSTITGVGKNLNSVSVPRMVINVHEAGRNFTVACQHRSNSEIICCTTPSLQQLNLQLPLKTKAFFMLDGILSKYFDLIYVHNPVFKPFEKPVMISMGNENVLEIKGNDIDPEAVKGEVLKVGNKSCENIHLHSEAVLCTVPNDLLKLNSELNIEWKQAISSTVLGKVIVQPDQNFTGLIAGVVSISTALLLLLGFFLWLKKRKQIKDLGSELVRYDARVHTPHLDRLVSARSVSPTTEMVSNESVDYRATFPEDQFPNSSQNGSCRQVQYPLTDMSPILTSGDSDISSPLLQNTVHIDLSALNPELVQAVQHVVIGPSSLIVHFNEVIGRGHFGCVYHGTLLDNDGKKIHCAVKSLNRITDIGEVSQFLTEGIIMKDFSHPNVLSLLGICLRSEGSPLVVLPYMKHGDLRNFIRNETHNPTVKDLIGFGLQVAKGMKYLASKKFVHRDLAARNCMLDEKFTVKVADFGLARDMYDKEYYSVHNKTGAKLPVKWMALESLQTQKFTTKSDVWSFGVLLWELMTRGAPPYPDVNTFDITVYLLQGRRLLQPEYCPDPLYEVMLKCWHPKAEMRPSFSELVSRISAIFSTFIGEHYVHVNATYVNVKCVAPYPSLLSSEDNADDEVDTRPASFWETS
T1 sequence (P22455 22-802): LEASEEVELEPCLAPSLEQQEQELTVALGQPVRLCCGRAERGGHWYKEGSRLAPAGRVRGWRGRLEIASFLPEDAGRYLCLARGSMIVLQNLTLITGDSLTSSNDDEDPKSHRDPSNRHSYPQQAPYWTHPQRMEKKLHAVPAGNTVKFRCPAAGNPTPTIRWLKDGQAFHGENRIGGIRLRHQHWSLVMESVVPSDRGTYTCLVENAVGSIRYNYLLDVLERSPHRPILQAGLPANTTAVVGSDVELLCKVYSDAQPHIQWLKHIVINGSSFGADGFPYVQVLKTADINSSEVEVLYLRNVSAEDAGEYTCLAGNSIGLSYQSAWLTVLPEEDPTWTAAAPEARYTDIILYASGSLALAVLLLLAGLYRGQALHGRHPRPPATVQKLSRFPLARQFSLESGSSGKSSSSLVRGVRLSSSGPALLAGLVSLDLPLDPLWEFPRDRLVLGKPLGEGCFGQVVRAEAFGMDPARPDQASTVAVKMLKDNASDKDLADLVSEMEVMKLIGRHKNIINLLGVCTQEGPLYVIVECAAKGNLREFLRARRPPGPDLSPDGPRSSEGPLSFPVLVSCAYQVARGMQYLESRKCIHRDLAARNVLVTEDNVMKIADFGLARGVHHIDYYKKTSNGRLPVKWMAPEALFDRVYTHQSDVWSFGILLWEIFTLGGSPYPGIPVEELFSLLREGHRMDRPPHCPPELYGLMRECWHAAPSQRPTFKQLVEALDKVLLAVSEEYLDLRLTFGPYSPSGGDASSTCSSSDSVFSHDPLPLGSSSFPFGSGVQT

| IC50 (human FGFR4) | AUC(0-t) ([1]; CD-1, mouse, PO 10 mg/kg) | bioavailability ([1]; CD-1, mouse) | Cmax ([1]; CD-1, mouse, PO 10 mg/kg) | Tmax ([1]; CD-1, mouse, PO 10 mg/kg) | AUC(0-t) ([1]; CD-1 nude, mouse, IV 2 mg/kg) | clearance ([1]; CD-1 nude, mouse, IV 2 mg/kg) | half-life ([1]; CD-1 nude, mouse, IV 2 mg/kg) | Vd ([1]; CD-1 nude, mouse, IV 2 mg/kg) | oral bioavailability (in words) [1] | IC50 (human FGFR1) | IC50 (human c-Met) | SMILES | TGI % (the last administration on the 21th day) ([2]; 10 mg/KG QD) | TGI % (the last administration on the 21th day) ([2]; 5 mg/KG BID) |
| --- | --- | --- | --- | --- | --- | --- | --- | --- | --- | --- | --- | --- | --- | --- |
| 1.7 nM | 3.23 µM·h | 21.5% | 877 nM | 1.3 h | 3.15 µM·h | 25.3 mL/min/kg | 66 min | 2.1 L/kg | moderate bioavailability | 0.3 nM | 6.3 nM | COc1nc(OC)c(F)c(Cc2c[nH]c3ncc(-c4cnn(CCO)c4)cc23)c1F [Embodiment 48] | 77% | – |
| – | 16.6 µM·h | 86.6% | 5040 nM | 1 h | 3.79 µM·h | 21.2 mL/min/kg | 66 min | 1.7 L/kg | high oral bioavailability | – | – | COc1cc(OC)c(F)c(Cc2c[nH]c3ncc(-c4cnn(CCO)c4)cc23)c1F [Embodiment 46] | 80% | 98% |
